Laboratory results from patent US20230107642A1 (Erasca, Inc., priority 2020, published 2023).

Target: T1, Cys12 of the KRAS 4B G12C protein (Homo sapiens, UniProt P01116, G12C)
T1 construct: This protein contained 188 amino acids in total, including an N-terminal 6-Histidine tag; made in house; host or cells: E. coli BL21
Test: In vitro covalent adduct formation (CAF) assay, LC-MS intact mass
Type: binding
Details: 10 uM compound
Procedure: This Example provides a protocol for assessing covalent adduct formation (CAF) between the compounds of the present application and KRAS.
In vitro covalent adduct formation assay: Covalent adduct formation (CAF) reactions between Cys12 of the KRAS 4B G12C protein and some of the compounds of Tables 1 to 4 were measured in vitro using liquid chromatography-mass spectrometry (LC-MS).
Recombinant Human KRAS 4B protein containing the G12C mutation was used in compound screening experiments. This protein contained 188 amino acids in total, including an N-terminal 6-Histidine tag, followed by a Tobacco Etch Virus (TEV) tag, followed by residues 1-169 of the native KRAS 4B sequence. The exact mass of the protein was 21,310 Da as determined by mass spectrometry. The full amino acid sequence is shown below: […]
The recombinant protein was expressed in E. coli BL21 cells and purified using affinity chromatography via a Ni-NTA column. Protein stocks were nucleotide-exchanged to >95% GDP, concentrated to 4 mg/mL, and stored at −80° C. in storage buffer (50 mM HEPES pH 7.4, 50 mM NaCl, 5 mM MgCl2, 1 mM DTT). Pure KRAS 4B G12C protein was diluted to a concentration of 5 μM in Tris Buffered Saline, pH 7.4. The compounds were dissolved in DMSO and added to the diluted protein to make a 10 μM concentration. The total DMSO concentration in the reaction was 4%. The reaction was mixed by pipetting and incubated at 22° C. for one hour. Aliquots of the reaction were taken over time and diluted 2:1 in 0.1% formic acid. The intact mass of the protein samples was measured by LC-MS using a QExactive+ mass spectrometer (Thermo Scientific). An amount of 500 ng total protein was injected onto a C8 reverse phase column, eluted with a seven-minute gradient of 30%-90% acetonitrile/0.1% formic acid, and analyzed for intact mass by the mass spectrometer. Adducts identified were confirmed to be within 1 Dalton of the expected mass, and the relative ratios of free:adduct protein were used to quantify the percentage of protein bound by the compound. CAF reactions were run in duplicate, with a typical variability of ±5%.

| SMILES | % CAF 10 uM @ 60 min (60 min incubation) [%] | % CAF 10 uM @ 60 min (60 min) [%] |
| --- | --- | --- |
| C=CC(=O)N1[C@H](C)CN(c2nc(=O)n3c4c(c(-c5cc(Cl)c(F)cc5F)c(C(F)(F)F)cc24)SCC2(COC2)C3)C[C@@H]1C (atropisomer, axis not shown) [Example 1124, (R)-8′-((3S,5R)-4-acryloyl-3,5-dimethylpiperazin-1-yl)-11′-(5-chloro-2,4-difluorophenyl)-10′-(trifluoromethyl)-2′H,4′H,6′H-spiro[oxetane-3,3′-[1,4]thiazepino [2,3,4-ij]quinazolin]-6′-one] | 96.2 | – |
| C=CC(=O)N1[C@H](C)CN(c2nc(=O)n3c4c(c(-c5cc(Cl)c(F)cc5F)c(C(F)(F)F)cc24)SCC2(COC2)C3)C[C@@H]1C (atropisomer, axis not shown) [Example 1125, (S)-8′-((3S,5R)-4-acryloyl-3,5-dimethylpiperazin-1-yl)-11′-(5-chloro-2,4-difluorophenyl)-10′-(trifluoromethyl)-2′H,4′H,6′H-spiro[oxetane-3,3′-[1,4]thiazepino [2,3,4-ij]quinazolin]-6′-one] | 92.1 | – |
| C=CC(=O)N1CCN(c2nc(=O)n3c4c(c(-c5ccc(F)cc5F)c(C(F)(F)F)cc24)SCC2(COC2)C3)CC1 (atropisomer, axis not shown) [Example 1127, (R)-8′-(4-acryloylpiperazin-1-yl)-11′-(2,4-difluorophenyl)-10′-(trifluoromethyl)-2′H,4′H,6′H-spiro[oxetane-3,3′-[1,4]thiazepino [2,3,4-ij]quinazolin]-6′-one] | 95.3 | – |
| C=CC(=O)N1CCN(c2nc(=O)n3c4c(c(-c5ccc(F)cc5F)c(C(F)(F)F)cc24)SCC2(COC2)C3)CC1 (atropisomer, axis not shown) [Example 1128, (S)-8′-(4-acryloylpiperazin-1-yl)-11′-(2,4-difluorophenyl)-10′-(trifluoromethyl)-2′H,4′H,6′H-spiro[oxetane-3,3′-[1,4]thiazepino [2,3,4-ij]quinazolin]-6′-one] | 65.8 | – |
| C=CC(=O)N1[C@H](C)CN(c2nc(=O)n3c4c(c(-c5cccc6cnn(C)c56)c(C(F)(F)F)cc24)SC[C@@H]3COC)C[C@@H]1C (atropisomer, axis not shown) [Example 1130, (3S,10S)-7-((3S,5R)-4-acryloyl-3,5-dimethylpiperazin-1-yl)-3-(methoxymethyl)-10-(1-methyl-1H-indazol-7-yl)-9-(trifluoromethyl)-2,3-dihydro-5H-[1,4]thiazino [2,3,4-ij]quinazolin-5-one] | 95.6 | – |
| C=CC(=O)N1[C@H](C)CN(c2nc(=O)n3c4c(c(-c5cccc6cnn(C)c56)c(C(F)(F)F)cc24)SC[C@@H]3COC)C[C@@H]1C (atropisomer, axis not shown) [Example 1131, (3S,10R)-7-((3S,5R)-4-acryloyl-3,5-dimethylpiperazin-1-yl)-3-(methoxymethyl)-10-(1-methyl-1H-indazol-7-yl)-9-(trifluoromethyl)-2,3-dihydro-5H-[1,4]thiazino [2,3,4-ij]quinazolin-5-one] | 18.2 | – |
| C=CC(=O)N1[C@H](C)CN(c2nc(=O)n3c4c(c(-c5cccc6cnn(C)c56)c(C(F)(F)F)cc24)SCC2(COC2)C3)C[C@@H]1C (atropisomer, axis not shown) [Example 1132, (S)-8′-((3S,5R)-4-acryloyl-3,5-dimethylpiperazin-1-yl)-11′-(1-methyl-1H-indazol-7-yl)-10′-(trifluoromethyl)-2′H,4′H,6′H-spiro[oxetane-3,3′-[1,4]thiazepino [2,3,4-ij]quinazolin]-6′-one] | 85.6 | – |
| C=CC(=O)N1[C@H](C)CN(c2nc(=O)n3c4c(c(-c5cccc6cnn(C)c56)c(C(F)(F)F)cc24)SCC2(COC2)C3)C[C@@H]1C (atropisomer, axis not shown) [Example 1133, (R)-8′-((3S,5R)-4-acryloyl-3,5-dimethylpiperazin-1-yl)-11′-(1-methyl-1H-indazol-7-yl)-10′-(trifluoromethyl)-2′H,4′H,6′H-spiro[oxetane-3,3′-[1,4]thiazepino [2,3,4-ij]quinazolin]-6′-one] | 54.1 | – |

Other lines, results leading:

| % CAF 10 uM @ 60 min (60 min incubation) [%] | % CAF 10 uM @ 60 min (60 min) [%] | SMILES |
| --- | --- | --- |
| 46.8 | – | C=CC(=O)N1[C@H](C)CN(c2nc(=O)n3c4c(c(-c5ccc(F)c6cnn(C)c56)c(C(F)(F)F)cc24)SC[C@@H]3COC)C[C@@H]1C (atropisomer, axis not shown) [Example 1126, (3S,10S)-7-((3S,5R)-4-acryloyl-3,5-dimethylpiperazin-1-yl)-10-(4-fluoro-1-methyl-1H-indazol-7-yl)-3-(methoxymethyl)-9-(trifluoromethyl)-2,3-dihydro-5H-[1,4]thiazino [2,3,4-ij]quinazolin-5-one] |
| 72.7 | – | C=CC(=O)N1[C@H](C)CN(c2nc(=O)n3c4c(c(-c5cc(Cl)c(F)cc5F)c(C(F)(F)F)cc24)SC[C@@H](N2CCOCC2)C3)C[C@@H]1C (atropisomer, axis not shown) [Example 1135, (3S,11S)-8-((3S,5R)-4-acryloyl-3,5-dimethylpiperazin-1-yl)-11-(5-chloro-2,4-difluorophenyl)-3-morpholino-10-(trifluoromethyl)-3,4-dihydro-2H,6H-[1,4]thiazepino [2,3,4-ij]quinazolin-6-one] |
| 82.7 | – | C=CC(=O)N1[C@H](C)CN(c2nc(=O)n3c4c(c(-c5cc(Cl)c(F)cc5F)c(C(F)(F)F)cc24)SC[C@@H](N2CCOCC2)C3)C[C@@H]1C (atropisomer, axis not shown) [Example 1136, (3S,11R)-8-((3S,5R)-4-acryloyl-3,5-dimethylpiperazin-1-yl)-11-(5-chloro-2,4-difluorophenyl)-3-morpholino-10-(trifluoromethyl)-3,4-dihydro-2H,6H-[1,4]thiazepino [2,3,4-ij]quinazolin-6-one] |
| 83.4 | – | C=CC(=O)N1[C@H](C)CN(c2nc(=O)n3c4c(c(-c5cc(Cl)c(F)cc5F)c(C(F)(F)F)cc24)SC[C@@H](N2CCCC2)C3)C[C@@H]1C (atropisomer, axis not shown) [Example 1137, (3S,11R)-8-((3S,5R)-4-acryloyl-3,5-dimethylpiperazin-1-yl)-11-(5-chloro-2,4-difluorophenyl)-3-(pyrrolidin-1-yl)-10-(trifluoromethyl)-3,4-dihydro-2H,6H-[1,4]thiazepino [2,3,4-ij]quinazolin-6-one] |
| 50.5 | – | C=CC(=O)N1[C@H](C)CN(c2nc(=O)n3c4c(c(-c5cc(Cl)c(F)cc5F)c(C(F)(F)F)cc24)SC[C@@H](N2CCCC2)C3)C[C@@H]1C (atropisomer, axis not shown) [Example 1138, (3S,11S)-8-((3S,5R)-4-acryloyl-3,5-dimethylpiperazin-1-yl)-11-(5-chloro-2,4-difluorophenyl)-3-(pyrrolidin-1-yl)-10-(trifluoromethyl)-3,4-dihydro-2H,6H-[1,4]thiazepino [2,3,4-ij]quinazolin-6-one] |
| – | 90.8 | C=CC(=O)N1[C@H](C)CN(c2nc(=O)n3c4c(c(-c5ccc(F)cc5F)c(C(F)(F)F)cc24)SC[C@@H]3CN2C[C@@H]3C[C@H]2CO3)C[C@@H]1C (atropisomer, axis not shown) [Example 1300, (3S,10S)-3-(((1S,4S)-2-oxa-5-azabicyclo[2.2.1]heptan-5-yl)methyl)-7-((3S,5R)-4-acryloyl-3,5-dimethylpiperazin-1-yl)-10-(2,4-difluorophenyl)-9-(trifluoromethyl)-2,3-dihydro-5H-[1,4]thiazino[2,3,4-ij]quinazolin-5-one] |
| – | 96.4 | C=CC(=O)N1[C@H](C)CN(c2nc(=O)n3c4c(c(-c5ccc(F)cc5F)c(C(F)(F)F)cc24)SC[C@@H]3CN2C[C@@H]3C[C@H]2CO3)C[C@@H]1C (atropisomer, axis not shown) [Example 1301, (3S)-3-((1S,4S)-2-oxa-5-azabicyclo[2.2.1]heptan-5-ylmethyl)-7-((3S,5R)-4-acryloyl-3,5-dimethylpiperazin-1-yl)-10-(2,4-difluorophenyl)-9-(trifluoromethyl)-2H-[1,4]thiazino[2,3,4-ij]quinazolin-5(3H)-one] |
| – | 97.2 | C=CC(=O)N1CCN(c2nc(=O)n3c4c(c(-c5ccc(F)cc5F)c(C(F)(F)F)cc24)SC[C@@H]3CN2C[C@@H]3C[C@H]2CO3)CC1 (atropisomer, axis not shown) [Example 1305, (3S,10R)-3-(((1S,4S)-2-oxa-5-azabicyclo[2.2.1]heptan-5-yl)methyl)-7-(4-acryloylpiperazin-1-yl)-10-(2,4-difluorophenyl)-9-(trifluoromethyl)-2,3-dihydro-5H-[1,4]thiazino[2,3,4-ij]quinazolin-5-one] |
